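Protocol summary: plate cells (96-well), add compound at 5 concentrations, incubate 48 h, interpolate endpoints linearly. Abbreviation: GI50, concentration required for 50% inhibition of growth.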 Calls of active or inactive are those of the source. No stated cut-off is given here; in the data, active = GI50 up to about 1.1 µM and inactive = higher.
Tests used:
Assay in all cases: inhibition of tumour cell growth, NCI panel, 48 h
Malme-3M = tested on: Malme-3M
SK-MEL-2 = tested on: SK-MEL-2
HCC 2998 = tested on: HCC 2998
SW-620 = tested on: SW-620
U-251 = tested on: U-251
CCRF-CEM = tested on: CCRF-CEM
OVCAR-5 = tested on: OVCAR-5
TK-10 = tested on: TK-10
SR = tested on: SR
HCT-15 = tested on: HCT-15
IGROV-1 = tested on: IGROV-1
NCI-H522 = tested on: NCI-H522
MDA-MB-231 = tested on: MDA-MB-231
SF-295 = tested on: SF-295
SF-539 = tested on: SF-539
MCF7 = tested on: MCF7
SNB-75 = tested on: SNB-75
UACC-62 = tested on: UACC-62
A498 = tested on: A498
DU-145 = tested on: DU-145

Compound | GI50 (Malme-3M) | GI50 (SK-MEL-2) | GI50 (HCC 2998) | GI50 (SW-620) | GI50 (U-251) | GI50 (CCRF-CEM) | GI50 (OVCAR-5) | GI50 (TK-10) | GI50 (SR) | GI50 (HCT-15) [µM] | GI50 (IGROV-1) | GI50 (NCI-H522) | GI50 (MDA-MB-231) | GI50 (SF-295) | GI50 (SF-539) | GI50 (MCF7) | GI50 (SNB-75) | GI50 (UACC-62) | GI50 (A498) | GI50 (DU-145)
S=c1c2cn[nH]c2nc2scc(-c3ccc(Cl)cc3)n12 | 22.2 µM (inactive) | 18.2 µM (inactive) | 15.4 µM (inactive) | 9.04 µM (inactive) | 12.9 µM (inactive) | 16.2 µM (inactive) | 14.3 µM (inactive) | 10.6 µM (inactive) | 12.1 µM (inactive) | 10.7 | > 10 µM (inactive) | 24.9 µM (inactive) | 17 µM (inactive) | > 10 µM (inactive) | 17.7 µM (inactive) | 18.5 µM (inactive) | 13.9 µM (inactive) | 16.3 µM (inactive) | – | –
CN(Cc1cnc2c(n1)C(N)=NN(N)N2)c1ccc(C(=O)NC(CCP(=O)(O)O)C(=O)O)cc1 (stereo not given) | > 23.8 µM (inactive) | > 100 µM (inactive) | 15.3 µM (inactive) | 1.53 µM (inactive) | > 91 µM (inactive) | 0.267 µM (active) | – | > 100 µM (inactive) | – | 6.14 | 4.86 µM (inactive) | 26.4 µM (inactive) | > 100 µM (inactive) | 3.08 µM (inactive) | 3.47 µM (inactive) | 2.18 µM (inactive) | 7.01 µM (inactive) | 1.78 µM (inactive) | 36.5 µM (inactive) | –
COc1ccc(C2SC(C)C(=O)N2c2nc(-c3nc(-c4ccc(Cl)cc4)cs3)cs2)cc1 (stereo not given) | > 100 µM (inactive) | – | > 100 µM (inactive) | > 100 µM (inactive) | 84.7 µM (inactive) | 85.3 µM (inactive) | > 100 µM (inactive) | > 100 µM (inactive) | > 100 µM (inactive) | > 100 | > 100 µM (inactive) | > 100 µM (inactive) | > 100 µM (inactive) | > 100 µM (inactive) | > 100 µM (inactive) | > 100 µM (inactive) | > 100 µM (inactive) | > 100 µM (inactive) | – | –
Cc1ccc(/C=C2/NC(=S)SC2=O)cc1 | – | 36.9 µM (inactive) | 31.2 µM (inactive) | 54.2 µM (inactive) | 43.9 µM (inactive) | – | 40.8 µM (inactive) | 18.1 µM (inactive) | – | 24.2 | 37.7 µM (inactive) | – | 24.4 µM (inactive) | 27.6 µM (inactive) | 30 µM (inactive) | 39.6 µM (inactive) | 20.7 µM (inactive) | – | – | 58.5 µM (inactive)
CCN(CC)c1ccc2cc(C(=O)Nc3ccccn3)c(=N)oc2c1 | 60.3 µM (inactive) | 25.5 µM (inactive) | > 100 µM (inactive) | > 100 µM (inactive) | 37.9 µM (inactive) | > 100 µM (inactive) | 80.2 µM (inactive) | – | > 100 µM (inactive) | > 100 | > 100 µM (inactive) | – | 47.5 µM (inactive) | – | 43.5 µM (inactive) | – | 28.5 µM (inactive) | 30.3 µM (inactive) | > 100 µM (inactive) | > 100 µM (inactive)
CCCc1cc(=O)oc2c3c(c4c(c12)OC(C)(C)CC4)O[C@H](C)[C@@H](C)[C@H]3O | 21.9 µM (inactive) | 24.7 µM (inactive) | 16.6 µM (inactive) | 17 µM (inactive) | 13.9 µM (inactive) | 14.1 µM (inactive) | 16.7 µM (inactive) | – | – | 13.4 | 15.6 µM (inactive) | – | 14.1 µM (inactive) | 16.2 µM (inactive) | 21.4 µM (inactive) | 16.3 µM (inactive) | 16.4 µM (inactive) | 14.1 µM (inactive) | – | 16.1 µM (inactive)
CC(C)(C)C1=C(Br)C(OC(=O)C(F)(F)F)(C(C)(C)C)OP1(=O)c1ccccc1 (stereo not given) | 65 µM (inactive) | 29.2 µM (inactive) | 38.6 µM (inactive) | – | 35.6 µM (inactive) | – | > 100 µM (inactive) | 79.3 µM (inactive) | – | 31.5 | 35.7 µM (inactive) | 42.2 µM (inactive) | – | 35.3 µM (inactive) | 37.9 µM (inactive) | 42.7 µM (inactive) | 33.4 µM (inactive) | 28.8 µM (inactive) | 27.8 µM (inactive) | 45.2 µM (inactive)
Cc1cn2cc(-c3cccs3)nc2s1 | > 100 µM (inactive) | > 100 µM (inactive) | 63.4 µM (inactive) | > 100 µM (inactive) | > 100 µM (inactive) | 54.6 µM (inactive) | > 100 µM (inactive) | > 73.3 µM (inactive) | > 67.6 µM (inactive) | > 71.9 | > 86.3 µM (inactive) | > 100 µM (inactive) | – | > 100 µM (inactive) | > 100 µM (inactive) | > 53.5 µM (inactive) | > 100 µM (inactive) | > 100 µM (inactive) | 27.2 µM (inactive) | > 40.4 µM (inactive)
CC1(C)CC[C@]2(C(=O)O)[C@H](O)C[C@]3(C)C(=CC[C@@H]4[C@@]5(C)CC[C@H](OC6OC(C(=O)O)C(O)C(O)C6O)C(C)(C)[C@@H]5CC[C@]43C)[C@@H]2C1 (stereo not given in full) | > 100 µM (inactive) | > 100 µM (inactive) | 27.2 µM (inactive) | > 100 µM (inactive) | 41 µM (inactive) | 36.9 µM (inactive) | > 100 µM (inactive) | – | 21.3 µM (inactive) | 58.2 | > 100 µM (inactive) | > 100 µM (inactive) | – | 46.1 µM (inactive) | – | > 100 µM (inactive) | 46.7 µM (inactive) | 23.6 µM (inactive) | 22.2 µM (inactive) | 96.4 µM (inactive)
COc1cc(/C=N/N=C(\N)NO)c([N+](=O)[O-])cc1OC | 59.3 µM (inactive) | 26.5 µM (inactive) | 24.2 µM (inactive) | 47.9 µM (inactive) | 28.3 µM (inactive) | 41.6 µM (inactive) | 37.2 µM (inactive) | 69.3 µM (inactive) | 29.2 µM (inactive) | 22.7 | 53.2 µM (inactive) | 13.3 µM (inactive) | – | 30.6 µM (inactive) | 41 µM (inactive) | – | 27.5 µM (inactive) | 20.6 µM (inactive) | 37.7 µM (inactive) | –
O=C(O)C(=O)/C=C\c1ccc(Cl)cc1 | > 100 µM (inactive) | > 100 µM (inactive) | > 100 µM (inactive) | 10.6 µM (inactive) | 66.4 µM (inactive) | > 100 µM (inactive) | > 100 µM (inactive) | > 100 µM (inactive) | 51.6 µM (inactive) | > 100 | > 100 µM (inactive) | > 100 µM (inactive) | – | > 100 µM (inactive) | > 100 µM (inactive) | – | > 100 µM (inactive) | > 100 µM (inactive) | > 100 µM (inactive) | –
Cc1ccc2[nH]c(=O)c(C(C#N)c3ccccc3)nc2c1 (stereo not given) | 45.2 µM (inactive) | 20 µM (inactive) | 28.2 µM (inactive) | 43.8 µM (inactive) | 24.3 µM (inactive) | 32.7 µM (inactive) | 55.3 µM (inactive) | > 100 µM (inactive) | 71.3 µM (inactive) | 31.4 | 34.2 µM (inactive) | 32.7 µM (inactive) | – | 30.4 µM (inactive) | 46.7 µM (inactive) | – | 30.5 µM (inactive) | 26.5 µM (inactive) | > 100 µM (inactive) | –
[N-]=[N+]=C1CNC(=O)NC1=O | > 100 µM (inactive) | > 100 µM (inactive) | > 100 µM (inactive) | > 100 µM (inactive) | > 100 µM (inactive) | 24.3 µM (inactive) | > 100 µM (inactive) | > 100 µM (inactive) | – | > 100 | > 100 µM (inactive) | > 100 µM (inactive) | > 100 µM (inactive) | > 100 µM (inactive) | > 100 µM (inactive) | > 100 µM (inactive) | 13.5 µM (inactive) | > 100 µM (inactive) | – | > 100 µM (inactive)
CO/N=C(\C(=O)Nc1cncs1)c1csc(NC(c2ccccc2)(c2ccccc2)c2ccccc2)n1 | > 10 µM (inactive) | > 10 µM (inactive) | 8.53 µM (inactive) | > 10 µM (inactive) | > 10 µM (inactive) | 3.81 µM (inactive) | > 10 µM (inactive) | > 10 µM (inactive) | 4.12 µM (inactive) | > 10 | > 10 µM (inactive) | > 10 µM (inactive) | – | 7.21 µM (inactive) | 0.628 µM (active) | 6.08 µM (inactive) | 9.95 µM (inactive) | – | > 10 µM (inactive) | > 10 µM (inactive)
Cc1[nH]c2ccccc2c1C1Cc2ccccc2N1C(=O)/C=C/C(=O)O (stereo not given) | > 100 µM (inactive) | > 100 µM (inactive) | > 100 µM (inactive) | > 100 µM (inactive) | > 100 µM (inactive) | > 100 µM (inactive) | > 100 µM (inactive) | > 100 µM (inactive) | > 100 µM (inactive) | 16.1 | > 100 µM (inactive) | > 100 µM (inactive) | – | > 100 µM (inactive) | > 100 µM (inactive) | – | > 100 µM (inactive) | > 100 µM (inactive) | > 100 µM (inactive) | –
COc1ccc2oc(C(=O)N3CC(CCl)c4ccc([N+](=O)[O-])cc43)cc2c1 (stereo not given) | – | 26.4 µM (inactive) | > 100 µM (inactive) | > 100 µM (inactive) | 26 µM (inactive) | – | – | 33.2 µM (inactive) | 0.402 µM (active) | – | 0.103 µM (active) | – | 14.9 µM (inactive) | 13 µM (inactive) | 14 µM (inactive) | – | 18.2 µM (inactive) | 41.9 µM (inactive) | 18.9 µM (inactive) | 25.4 µM (inactive)
C(=N\c1ccc(-c2nc3ccccc3[nH]2)cc1)/c1ccco1 | > 100 µM (inactive) | 67.8 µM (inactive) | 76.4 µM (inactive) | 89.1 µM (inactive) | – | 16.5 µM (inactive) | > 100 µM (inactive) | > 100 µM (inactive) | 37.2 µM (inactive) | 61 | > 100 µM (inactive) | 53.1 µM (inactive) | – | – | 77.8 µM (inactive) | 21.1 µM (inactive) | > 100 µM (inactive) | 89.7 µM (inactive) | > 100 µM (inactive) | > 100 µM (inactive)

Source: ChEMBL document CHEMBL1201862, “PubChem BioAssay data set” (2004)
